# Source: publication PMC8312610, “F4, a collagen XIX-derived peptide, inhibits tumor angiogenesis through αvβ3 and α5β1 integrin interaction” (Cell Adhesion & Migration, 2021)
# Positions of bridges follow the written chain, without caps; N, C: chain ends. No end group written: not given here.
# Assays:
# α5β1 integrin [1] = experiment: F4 affinity chromatography of HUVEC extracts with western blot; format: binding, human; details: HUVEC protein extract, F4 peptide-Sepharose (F4 reduced with DTT), NaCl elution 0.15, 0.6 and 1.0 M, +4°C, N = 2
# Experimental: (§1) HUVEC were cultured as previously described in a Nunclon® 150 cm^2 flask. At 80%-confluence, cells were washed with HBSS and scrapped in lysis buffer (RIPA buffer, Sigma, ref R0278-50ML) supplemented with 1% (v/v) Halt Protease Inhibitor Cocktail (ThermoFisher, ref 78430). Cell lysates were incubated for 30 min at +4°C and vortexed every 5 min. Unsoluble debris were pelleted by centrifugation at 10,000 g for 10 min at +4°C. Bio-Rad Protein Assay (Bio-Rad, Marne-La-Coquette, France) was used to determine the protein concentrations according to the manufacturer’s instructions. […] HUVEC protein extracts were chromatographed at +4°C. Unbound protein were removed with 30 mL of washing buffer (10 mM Tris, 1 mM CaCl2, 1 mM MgCl2, pH 7.6, 1% (v/v) Protease Inhibitor Cocktail and 0.1% (w/v) octylglucoside (Sigma, ref O8001-100 MG)) according to the manufacturer’s instructions. Proteins bound to the affinity column were then eluted with elution buffer (10 mM Tris, pH 7.6, 1% (w/v) PIC and 0.1% (w/v) octylglucoside) supplemented with increasing concentrations of NaCl (0.15, 0.6 and 1 M). Absorbance was read at 280 nm to check protein elution and fractions corresponding to the different NaCl concentrations were pooled and concentrated using NanoSep Centrifugal Devices (cutoff 10 kDa; Pall). […]
# αvβ3 integrin = experiment: as above; format: binding, human; details: HUVEC protein extract, F4 peptide-Sepharose (F4 reduced with DTT), NaCl elution 0.15, 0.6 and 1.0 M, +4°C, N = 2
# Experimental: as §1
# α5β1 integrin [2] = experiment: Solid phase competition assay with biotinylated-F4, α5β1; format: binding, human; details: unlabeled F4, molar ratio 1/0 to 1/125, integrin coated at 26 × 10^−7 mol/L, 90 min, room temperature, N = 2
# Text: (§2) Figure 5. F4 directly binds to αvβ3 and α5β1 integrins. Direct interaction between αvβ3 or α5β1 integrin and F4 was studied using solid phase assays as described in the material and method section. The F4 peptide was biotinylated to allow its detection using the streptavidin-peroxidase complex. Different conditions were used. (a-b) The amounts of coated αvβ3 (a) or α5β1 integrin (b) were increased while biotinylated F4 peptide was kept constant. (c-d) The concentration of biotinylated F4 peptide was increased while coated amounts of αvβ3 (c) or α5β1 (d) integrins were kept constant. (e-f) Competitive assays were performed using increasing concentrations of F4 peptide while biotinylated-F4 peptide and αvβ3 (e) or α5β1 (f) integrins were kept constant. The solid phase assays were repeated twice (N = 2; n = 2)
# Wells of a 96-well plate were coated with α5β1 (ref. 3230-A5-050, R&D systems) and/or αvβ3 integrin (ref. 3050-AV-050, R&D systems) at different concentrations ranging from 26 × 10^−7 mol/L to 0.1 × 10^−7 mol/L (100 μL per well in PBS). The 96-well plate was left overnight at room temperature. The coating was then blocked with TBS containing 5% nonfat dry milk, 1 mM MgCl2 and 1 mM CaCl2 for 2 h at room temperature. […] The intensity of the yellow coloration was measured at 450 nm with an LB940 spectrophotometer (Berthold Technologies). […]
# α5β1 integrin [3] = experiment: Solid phase assay, direct binding to α5β1; set-up: species or system human; details: solid phase assays
# Text: as §2, with “The solid phase assays were repeated twice (N = 2; n = 2)” left out
# Wells of a 96-well plate were coated with α5β1 (ref. 3230-A5-050, R&D systems) and/or αvβ3 integrin (ref. 3050-AV-050, R&D systems) at different concentrations ranging from 26 × 10^−7 mol/L to 0.1 × 10^−7 mol/L (100 μL per well in PBS). […] The intensity of the yellow coloration was measured at 450 nm with an LB940 spectrophotometer (Berthold Technologies).
# The optimum integrin amount for the coating was determined using the above protocol and the optimum ligand concentration was sought using different dilutions of the biotinylated-F4 peptide ranging from 20.8 × 10^−4 to 0.16 × 10^−4 mol/L.
sequence,measurement,setting,value
"CNPEDCLYPVSHAHQR (disulfide 1-6 (inferred)) [F4, collagen XIX-derived peptide, released by plasmin from type XIX collagen]",α5 and β1 subunits bound to F4 column (western blot),α5β1 integrin [1],two bands in 0.6 M NaCl eluted sample which matched the 140 and 120 kDa bands of the recombinant α5β1 integrin
same,αv and β3 subunits bound to F4 column (western blot),αvβ3 integrin,two bands which matched the 150 and 110 kDa bands of the recombinant αvβ3 integrin
same,competition with biotinylated-F4 binding to α5β1,α5β1 integrin [2],decreased consequently
same,direct binding to α5β1 (conclusion),α5β1 integrin [3],binds to both αvβ3 and α5β1 integrins in a direct manner
